The results in this text go back to BindingDB's records for PubMed 33721669 (National Institute of Pharmaceutical Education and Research …, 2021).

Test [1] addresses Cyclin-dependent kinase 2 (Homo sapiens, UniProt P24941). Nature of the test: Inhibition of CDK2 (unknown origin).
Test [2] in a line: Inhibition of PDK1 (unknown origin) by SelectScreen kinase assay.
A short description of test [3]: Inhibition of VEGFR-2 (unknown origin) induced tube formation in HUVECs cocultured with fibroblasts measured after 11 days with media renewing every 3 days by staining based analysis.

Broadly, the IC50 is the concentration at which inhibition is half-maximal. The low end stands for higher potency, the high end for lower potency. Compound `O=C1Nc2ccc(Br)cc2/C1=N/NC(=O)c1cc2cc(Br)ccc2o1` yielded an IC50 in test [1] of 38 nM.
For `COc1cc2c(cc1OC)CN(CC(=O)Nc1ccc3c(c1)/C(=C/c1cnc[nH]1)C(=O)N3)CC2`, half-maximal inhibition in test [2] (IC50) required 98000 nM.
With `CCN(CC)CCN1Cc2[nH]c(/C=C3\C(=O)Nc4ccc(Br)cc43)c(C)c2C1=O`, the IC50 in test [3] is 179 nM.
Turning to `COc1ccc2c(c1)/C(=N/NC(=O)c1cc3cc(Br)ccc3o1)C(=O)N2`, the IC50 in test [1] was 53 nM.
